# Read-outs that look alike come from different tables or passages of the source.
# How the values were obtained:
# [1] = tested on: normal BHK-21 cells; experiment: MTT assay on normal cells; type: cell-based; conditions: Mesocricetus auratus, rapidly growing non-cancerous cells
# [2] = tested on: MCF-7 cells; experiment: Cell cycle analysis by flow cytometry (PI); type: cell-based; conditions: 24 h, IC50 and 2 × IC50
# From the text: The progression of the cell cycle is started by a cascade of intracellular signaling pathways to drive progression from the G0 phase to the G1 phase. The mammalian cell cycle involves an overexpression of D-type cyclins during the progression from the G0/G1 to the S-phase and eventually contributes to the development of cancer. Progression is controlled by D-type cyclins after binding with cyclin-dependent kinases (CDKs) and negatively controlled by binding to CDK inhibitors. CDK4/6 is involved in the G1/S transition of the cell cycle and has an important role in breast cancer. Retinoblastoma tumor suppressor protein (pRb) is deactivated through a CDK4/6-mediated phosphorylation reaction. In fact, cyclin D1/CDK4/6 is a mandatory controller of pRb phosphorylation. This phosphorylation deactivates the pRb that leads to cell proliferation.
# PI was used as a fluorescent probe by flow cytometry through small modifications in a published method. The difference in DNA content between the G0/G1, S (synthesis), and G2/M phases can be compared with a control sample. The assay was conducted by seeding 3 × 10^5 cells/well and incubating them for 24 h in a CO2 incubator at 37 °C. […] After harvesting the cells as directed, these cells were centrifuged at 3000 rpm for 5 min and washed with sterile PBS. […] The obtained results were analyzed by using the BD Accuri^TM C6 and GraphPad Prism 5.01 software.
# [3] = tested on: Breast Cancer (MCF-7) Cells; experiment: MTT cell viability assay, MCF-7; type: cell-based; conditions: Homo sapiens
# From the text: An MTT assay was used to determine the viability of the cells under examination in the desired medium. The mitochondrial dehydrogenase enzyme of the viable cells has a key role in the conversion of the yellow water-soluble substrate 3-(4,5-dimethylthiazol-2-y1)-2,5 diphenyl tetrazolium bromide (MTT) into a dark blue formazan product that is insoluble in water. The anticancer activity of the novel synthetic derivatives (4a–4k) was investigated through an MTT assay, with small modifications following the already published protocols against cancer cell lines (HeLa and MCF-7), using cisplatin as a reference drug. The cytotoxic effect of the tested compounds at 100 µM concentration was determined and represented as the percent growth inhibition compared with the untreated control cells. The first series comprised dihydropyridines analogous from 4a–4f with various substitution patterns on the phenyl ring. […] It is presumed that the 1-naphthyl containing compound 4c was locked in a configuration that is not favorable for an interaction with amino acid residues.
# The anti-proliferative activity of the synthesized compounds was determined in MCF-7 and HeLa cells by an MTT cell viability assay, as described earlier. Briefly, we seeded 1 × 10^4 cells/well in a sterile 96-well culture microtiter plate and incubated them in a 5% CO2 incubator at 37 °C for 24 h. […] After 24 h, the cells were treated with 0.2 mg/mL of MTT reagent for 4 h. We added 10% acidified SDS (sodium dodecyl sulfate) solubilizing solution in propanol (1:1) to solubilize the formazan crystals. After 30 min at 37 °C, the plate was placed on a gyratory shaker to completely dissolve the formazan crystals. The plate was placed on a microplate reader to measure the optical density at 570 nm. The IC50 values were calculated from three independent experiments as previously reported.
# [4] = target: T1, human tissue nonspecific alkaline phosphatase (h-TNAP) (Homo sapiens, UniProt P05186); experiment: Alkaline phosphatase inhibition assay (p-NPP substrate); type: biochemical
# T1 sequence (P05186 18-524): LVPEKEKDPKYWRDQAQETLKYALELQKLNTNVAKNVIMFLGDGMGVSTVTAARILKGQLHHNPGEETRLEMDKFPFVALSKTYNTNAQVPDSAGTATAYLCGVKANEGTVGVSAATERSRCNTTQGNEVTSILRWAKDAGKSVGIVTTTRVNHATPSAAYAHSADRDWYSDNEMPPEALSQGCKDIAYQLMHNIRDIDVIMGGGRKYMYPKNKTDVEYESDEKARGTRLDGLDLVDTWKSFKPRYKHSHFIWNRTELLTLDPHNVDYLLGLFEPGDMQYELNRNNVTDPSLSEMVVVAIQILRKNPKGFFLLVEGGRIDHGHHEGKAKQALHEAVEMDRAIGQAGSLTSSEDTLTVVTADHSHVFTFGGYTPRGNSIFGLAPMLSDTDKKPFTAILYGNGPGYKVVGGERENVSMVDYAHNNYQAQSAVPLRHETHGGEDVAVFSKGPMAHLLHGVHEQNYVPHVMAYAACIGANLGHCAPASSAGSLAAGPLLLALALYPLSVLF
# Method: The newly synthesized compounds were tested against human tissue nonspecific alkaline phosphatase (h-TNAP). The compounds were initially tested against the h-TNAP enzymes at 1 mM concentration. The assay buffer (pH 9.5) constituted of 50% glycerol, followed by tris-hydrochloride (50.0 mM), MgCl2 (5.0 mM), and ZnCl2 (0.1 mM) in the solution. The enzyme substrate p-nitrophenyl phosphate (p-NPP) and all the required test compounds were diluted to the required concentration by a dilution buffer method. In a 96-well plate, the assay was started by adding 70 µL of assay buffer followed by 10.0 µL of the test compound (from 1 mM), 10.0 µL of the enzyme (0.5 µL/mL) and then subsequently incubating at 37 °C for 10 min. The reaction was initiated with the addition of 10.0 µL of substrate (5.0 mM p-NPP) into each well and incubated for an additional 30 min.
# Percent inhibition was calculated by the formula:% Inhibition = [100 − (abs of test comp/abs of control) × 100]
structure (smiles),measurement,setting,value
"N#CC1=C(N)N(Cc2ccccc2)C(N)=C(C#N)C1c1ccc2ccccc2c1 [Compound 4d, 2,6-Diamino-1-benzyl-4-(naphthalen-2-yl)-1,4-dihydropyridine-3,5-dicarbonitrile]",IC50,[1],71.1 ± 3.18 µM
same,phase of cell cycle arrest,[2],G0/G1 phase
same,inhibition at 100 µM,"[3]; MCF7, 100 µM, 24 h",85.8%
same,IC50,"[3]; MCF7, unit given, read-out: Breast Cancer (MCF-7) Cells IC50 Values ± SEM",38.7 ± 2.31 µM
same,IC50,"[4]; Table 2, unit given in Table 1, read-out: Alkaline Phosphatase (h-TNAP) IC50",1320 ± 260 nM
same,fold more potent than levamisole,[4]; h-TNAP IC50 compared with levamisole,about seventeen-fold
same,IC50,"[4]; h-TNAP, assay buffer pH 9.5, Table 1 and text, read-out: IC50 + SEM",1320 ± 260 nM

# — PMC9570995, “Design, Synthesis, and Biological Evaluation of Novel Dihydropyridine and Pyridine Analogs as Potent Human Tissue Nonspecific Alkaline Phosphatase Inhibitors with Anticancer Activity: ROS and DNA Damage-Induced Apoptosis” (Molecules, 2022)
